ChEMBL document CHEMBL1133946, “An approach to the identification of potent inhibitors of influenza virus fusion using parallel synthesis methodology” (Bioorg Med Chem Lett, 2001)
Values after ≈ are worked out from the molar mass of the structure shown.

Assays:
[1] = test system: unidentified influenza virus; assay: Cytotoxicity of compound was measured against Influenza virus;in range of 8-9; assay type: functional
[2] = test system: unidentified influenza virus; assay: Compound tested for inhibition of influenza virus infectivity in cell culture determined by plaque reduction assay;Inactive; assay type: functional, organism-based
[3] = Compound tested for inhibition of hemolysis; assay type: functional
[4] = test system: unidentified influenza virus; assay: Cytotoxicity of compound was measured against Influenza virus; assay type: functional
[5] = test system: unidentified influenza virus; assay: Compound tested for inhibition of influenza virus infectivity in cell culture determined by plaque reduction assay; assay type: functional, organism-based
[6] = unidentified influenza virus, read-out: CC50
[7] = unidentified influenza virus, read-out: EC50

Row | Compound | CC50 [1] [µg/mL] | EC50 [2] | IC50 [3] [µg/mL] | CC50 [4, 6] [µg/mL] | EC50 [5, 7] [µg/mL] | CC50 [4] [µg/mL] | EC50 [5] [µg/mL]
1 | CC1(C)C[C@H](O)C[C@](C)(C/N=C(\S)c2cccc(Cl)c2)C1 | 8 (≈ 24.5 µM) | Not Active | 2.5 (≈ 7.67 µM) |  |  |  | 
2 | Cc1ccc(O)c(C(=O)NC[C@]2(C)C[C@H](O)CC(C)(C)C2)c1 |  |  | 0.15 (≈ 0.491 µM) | 50 (≈ 164 µM) | 0.136 (≈ 0.445 µM) |  | 
3 | CC1(C)C[C@H](O)C[C@@](C)(CNC(=S)c2cccc(Cl)c2)C1 |  |  | 0.047 (≈ 0.144 µM) | 20 (≈ 61.4 µM) | 0.02 (≈ 0.0614 µM) |  | 
4 | Cc1ccc(O)c(C(=O)NC[C@@]2(C)C[C@H](O)CC(C)(C)C2)c1 |  |  | 0.033 (≈ 0.108 µM) | 70 (≈ 229 µM) | 0.037 (≈ 0.121 µM) |  | 
5 | C[C@@H]1CCC[C@@H]2C[C@@H](NC(=O)c3cc(Cl)c(N)cc3O)CCN21 |  |  | 0.44 (≈ 1.3 µM) | > 100 | 2 (≈ 5.92 µM) |  | 
6 | CC1(C)C[C@H](O)C[C@@](C)(CNC(=O)c2cc(Cl)ccc2O)C1 (stereo in doubt; 10b) |  |  | 0.25 (≈ 0.767 µM) |  |  | >100 | 0.13 (≈ 0.399 µM)
7 | CC1(C)C[C@H](O)C[C@@](C)(CNC(=O)c2cc(Cl)ccc2O)C1 (stereo in doubt; 11b) |  |  | 0.025 (≈ 0.0767 µM) | 80 (≈ 246 µM) |  |  | 0.03 (≈ 0.0921 µM)
